Laboratory results: patent US20250002455A1, “NEW N-PHENYLPYRROLAMIDE INHIBITORS OF DNA GYRASE AND TOPOISOMERASE IV WITH ANTIBACTERIAL ACTIVITY” (priority 2020, published 2025)
≈ marks a conversion by molar mass, not a printed value.

Legend:
E. coli DNA gyrase = molecular target: T1, E. coli DNA gyrase (Escherichia coli, UniProt P0AES6); test: biochemical; details: E. coli DNA gyrase; read-out: IC50
T1 construct: purchased Inspiralis
Description: Inhibitory activities for compounds of the present invention were determined on E. coli and S. aureus DNA gyrase and topoisomerase IV in an assay from Inspiralis on streptavidin-coated 96-well microtiter plates from Thermo scientific Pierce. […] After washing off the unbound oligonucleotide, the enzyme test was performed. […] Reaction solutions were incubated at 37° C. for 30 min. After that, the TF buffer (50 mM NaOAc with pH 5.0, 50 mM NaCl and 50 mM MgCl2) was added to terminate the enzymatic reaction. After additional incubation for 30 min at rt, during which biotin-oligonucleotide-plasmid triplex was formed, the unbound plasmid was washed off using TF buffer and SybrGOLD in T10 buffer (10 mM Tris HCl with pH 8.0 and 1 mM EDTA) was added. […] GraphPad Prism 6.0 software was used to calculate the IC50 values. The result is given as the average value of three independent measurements. […] Chemoth.

E. coli topoisomerase IV = molecular target: T2, E. coli topoisomerase IV (Escherichia coli, UniProt P20083); test: biochemical; details: E. coli topo IV, read-out: RA (residual activity of the enzyme); for remaining activity at 1 µM: 1 μM compound; for remaining activity at 10 µM: 10 μM compound
T2 construct: purchased Inspiralis
Description: Inhibitory activities for compounds of the present invention were determined on E. coli and S. aureus DNA gyrase and topoisomerase IV in an assay from Inspiralis on streptavidin-coated 96-well microtiter plates from Thermo scientific Pierce. […] After washing off the unbound oligonucleotide, the enzyme test was performed. […] Reaction solutions were incubated at 37° C. for 30 min. After that, the TF buffer (50 mM NaOAc with pH 5.0, 50 mM NaCl and 50 mM MgCl2) was added to terminate the enzymatic reaction. After additional incubation for 30 min at rt, during which biotin-oligonucleotide-plasmid triplex was formed, the unbound plasmid was washed off using TF buffer and SybrGOLD in T10 buffer (10 mM Tris HCl with pH 8.0 and 1 mM EDTA) was added. […] Initial screening was done at 100 or 10 nM concentration of inhibitors against E. coli DNA gyrase or 1 μM or 100 nM concentration against S. aureus DNA gyrase and E. coli and S. aureus topo IV. […] GraphPad Prism 6.0 software was used to calculate the IC50 values. The result is given as the average value of three independent measurements. […] Chemoth.

E. faecalis ATCC 29212 = test: Microbroth dilution MIC (CLSI); format: cell-based; details: Enterococcus faecalis, ATCC29212; E. faecalis ATCC 29212; read-out: MIC
Description: (§1) The chemical entities described in the present invention were assessed for their antimicrobial activity using a microbroth dilution assay as recommended by the CLSI (Methods for Dilution Antimicrobial Susceptibility Tests for Bacteria That Grow Aerobically, and Methods for Antimicrobial Susceptibility Testing of Anaerobic Bacteria, Clinical and Laboratory Standards Institute, Document M07-A8, and M11-A8, Wayne, PA 19087, USA, 2012.). Compounds were dissolved by using 100% DMSO. Serial two-fold dilutions of each compound were made by using 100% DMSO as the diluent.
(§2) A library of Gram-negative and Gram-positive microbes and their drug- and multidrug-resistant variants were employed as test organisms. The MIC (minimum inhibitory concentration) was determined as the lowest concentration of an individual drug that lead to no visible growth.

S. aureus ATCC 29213 = test: Microbroth dilution MIC (CLSI); format: cell-based; details: Staphylococcus aureus, ATCC29213; S. aureus ATCC 29213; read-out: MIC
Description: as §1, §2

E. coli ATCC 25922 = test: Microbroth dilution MIC (CLSI); format: cell-based; details: Escherichia coli, ATCC25922; E. coli ATCC 25922; read-out: MIC
Description: as §1, §2

P. aeruginosa ATCC 27853 = test: Microbroth dilution MIC (CLSI); format: cell-based; details: Pseudomonas aeruginosa, ATCC27853; P. aeruginosa ATCC 27853; read-out: MIC
Description: as §1, §2

A. baumannii ATCC 17978 = test: Microbroth dilution MIC (CLSI); format: cell-based; details: Acinetobacter baumannii, ATCC17978; A. baumannii ATCC 17978; read-out: MIC
Description: as §1, §2

[1] = system: S. aureus ATCC 43300 (MRSA); test: Microbroth dilution MIC (CLSI); format: cell-based; details: Staphylococcus aureus; S. aureus ATCC 43300 (MRSA); read-out: MIC
Description: as §1, §2

[2] = system: E. spp. cloacae ATCC 13047; test: Microbroth dilution MIC (CLSI); format: cell-based; details: Enterobacter cloacae, ATCC13047; E. spp. cloacae ATCC 13047; read-out: MIC
Description: as §1, §2

K. pneumoniae ATCC 10031 = test: Microbroth dilution MIC (CLSI); format: cell-based; details: Klebsiella pneumoniae, ATCC10031; K. pneumoniae ATCC 10031; read-out: MIC
Description: as §1, §2

T2 sequence (P0AFI2 whole entry): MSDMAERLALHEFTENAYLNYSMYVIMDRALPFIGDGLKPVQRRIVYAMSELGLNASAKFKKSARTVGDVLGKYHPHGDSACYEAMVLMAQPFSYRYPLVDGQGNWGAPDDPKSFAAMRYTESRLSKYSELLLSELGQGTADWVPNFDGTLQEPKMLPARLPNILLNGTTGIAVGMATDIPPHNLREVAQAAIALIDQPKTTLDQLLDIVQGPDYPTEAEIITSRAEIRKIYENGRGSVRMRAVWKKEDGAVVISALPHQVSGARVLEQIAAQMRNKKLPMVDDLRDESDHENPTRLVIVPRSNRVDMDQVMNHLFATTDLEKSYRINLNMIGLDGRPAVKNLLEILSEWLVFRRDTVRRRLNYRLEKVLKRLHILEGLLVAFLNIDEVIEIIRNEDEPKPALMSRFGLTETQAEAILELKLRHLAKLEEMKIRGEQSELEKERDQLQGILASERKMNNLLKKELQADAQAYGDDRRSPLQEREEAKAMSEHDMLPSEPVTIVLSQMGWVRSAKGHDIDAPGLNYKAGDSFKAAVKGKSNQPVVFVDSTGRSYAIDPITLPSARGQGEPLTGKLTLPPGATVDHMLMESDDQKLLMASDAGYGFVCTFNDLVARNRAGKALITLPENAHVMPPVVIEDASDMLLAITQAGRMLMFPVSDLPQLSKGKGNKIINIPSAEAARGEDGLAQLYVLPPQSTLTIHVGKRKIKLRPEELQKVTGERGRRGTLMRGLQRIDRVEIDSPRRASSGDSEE
T2 sequence (P20083 whole entry): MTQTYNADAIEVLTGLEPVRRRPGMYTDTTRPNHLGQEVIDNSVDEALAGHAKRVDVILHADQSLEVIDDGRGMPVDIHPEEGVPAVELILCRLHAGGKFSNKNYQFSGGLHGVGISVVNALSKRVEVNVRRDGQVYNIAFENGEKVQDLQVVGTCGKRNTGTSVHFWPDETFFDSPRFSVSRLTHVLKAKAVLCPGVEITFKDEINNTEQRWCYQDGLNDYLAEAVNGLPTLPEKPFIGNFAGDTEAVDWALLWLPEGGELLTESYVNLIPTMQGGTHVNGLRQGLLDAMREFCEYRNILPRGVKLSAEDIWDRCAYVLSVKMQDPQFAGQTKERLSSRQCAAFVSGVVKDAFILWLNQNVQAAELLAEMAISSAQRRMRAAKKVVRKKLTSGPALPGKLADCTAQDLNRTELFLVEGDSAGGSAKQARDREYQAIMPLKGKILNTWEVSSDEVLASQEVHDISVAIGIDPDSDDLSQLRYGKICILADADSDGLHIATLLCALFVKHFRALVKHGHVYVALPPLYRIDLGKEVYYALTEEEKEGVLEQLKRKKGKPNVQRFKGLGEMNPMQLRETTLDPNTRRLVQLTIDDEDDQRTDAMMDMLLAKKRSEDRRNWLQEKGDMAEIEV

Structure (SMILES) | IC50 (E. coli DNA gyrase) | remaining activity at 1 µM (E. coli topoisomerase IV) | remaining activity at 10 µM (E. coli topoisomerase IV) | MIC (E. faecalis ATCC 29212) | MIC (S. aureus ATCC 29213) | MIC (E. coli ATCC 25922) | MIC (P. aeruginosa ATCC 27853) | MIC (A. baumannii ATCC 17978) | MIC [1] | MIC [2] | MIC (K. pneumoniae ATCC 10031)
Cc1[nH]c(C(=O)Nc2ccc(-c3n[nH]c(=O)o3)cc2OCc2ccncc2)c(Cl)c1Cl [Example 30, 3,4-Dichloro-5-methyl-N-(4-(5-oxo-4,5-dihydro-1,3,4-oxadiazol-2-yl)-2-(pyridin-4-ylmethoxy)phenyl)-1H-pyrrole-2-carboxamide] | 42.2 nM | – | – | – | – | – | – | – | – | – | –
Cc1[nH]c(C(=O)Nc2ccc(-c3n[nH]c(=O)o3)cc2OCc2cccs2)c(Cl)c1Cl [Example 33, 3,4-Dichloro-5-methyl-N-(4-(5-oxo-4,5-dihydro-1,3,4-oxadiazol-2-yl)-2-(thiophen-2-ylmethoxy)phenyl)-1H-pyrrole-2-carboxamide] | 3740 nM | – | – | – | – | – | – | – | – | – | –
Cc1[nH]c(C(=O)Nc2ccc(-c3n[nH]c(=O)o3)cc2N2CCNCC2)c(Cl)c1Cl.Cl [Example 41, 4-(2-(3,4-Dichloro-5-methyl-1H-pyrrole-2-carboxamido)-5-(5-oxo-4,5-dihydro-1,3,4-oxadiazol-2-yl)phenyl)piperazin-1-ium chloride] | 17.9 nM | 71% | 48% | 0.5 µg/mL | 2 µg/mL | ≥ 64 µg/mL | ≥ 64 µg/mL | ≥ 64 µg/mL | 4 µg/mL | ≥ 64 µg/mL | 0.25 µg/mL
Cc1[nH]c(C(=O)Nc2ccc(-c3n[nH]c(=O)o3)cc2N2CCOCC2)c(Cl)c1Cl [Example 42, 3,4-Dichloro-5-methyl-N-(2-morpholino-4-(5-oxo-4,5-dihydro-1,3,4-oxadiazol-2-yl)phenyl)-1H-pyrrole-2-carboxamide] | 82.2 nM | 66% | 54% | 0.125 µg/mL (≈ 0.285 µM) | 0.25 µg/mL (≈ 0.57 µM) | ≥ 64 µg/mL | ≥ 64 µg/mL | ≥ 64 µg/mL | 0.25 µg/mL (≈ 0.57 µM) | ≥ 64 µg/mL | ≥ 64 µg/mL
Cc1[nH]c(C(=O)Nc2ccc(-c3n[nH]c(=O)o3)cc2N2CCOC(C)C2)c(Cl)c1Cl (stereo not drawn) [Example 43, 3,4-Dichloro-5-methyl-N-(2-(2-methylmorpholino)-4-(5-oxo-4,5-dihydro-1,3,4-oxadiazol-2-yl)phenyl)-1H-pyrrole-2-carboxamide] | 53.5 nM | 103% | 102% | 1 µg/mL (≈ 2.21 µM) | ≥ 64 µg/mL | ≥ 64 µg/mL | ≥ 64 µg/mL | ≥ 64 µg/mL | ≥ 64 µg/mL | ≥ 64 µg/mL | ≥ 64 µg/mL
Cc1[nH]c(C(=O)Nc2ccc(-c3n[nH]c(=O)o3)cc2N2CC(C)OC(C)C2)c(Cl)c1Cl (stereo not drawn) [Example 44, 3,4-dichloro-N-(2-(2,6-dimethylmorpholino)-4-(5-oxo-4,5-dihydro-1,3,4-oxadiazol-2-yl)phenyl)-5-methyl-1H-pyrrole-2-carboxamide] | 109 nM | 105% | 105% | – | – | – | – | – | – | – | –
Cc1[nH]c(C(=O)Nc2ccc(C(=O)NS(C)(=O)=O)cc2N2CCOCC2)c(Cl)c1Cl [Example 45, 3,4-Dichloro-5-methyl-N-(4-((methylsulfonyl)carbamoyl)-2-morpholinophenyl)-1H-pyrrole-2-carboxamide] | 243 nM | – | – | – | – | – | – | – | – | – | –
